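Assay format: 96-well plates, 48-hour exposure. TGI: concentration producing complete growth inhibition.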
Assays:
Experiment in all cases: inhibition of tumour cell growth, NCI panel, 48 h
786-0 renal = test system: 786-0 renal
A498 renal = test system: A498 renal
A549 NSCLC = test system: A549 NSCLC
ACHN renal = test system: ACHN renal
BT-549 breast = test system: BT-549 breast
CAKI-1 renal = test system: CAKI-1 renal
CCRF-CEM leukemia = test system: CCRF-CEM leukemia
COLO 205 colon = test system: COLO 205 colon
DU-145 prostate = test system: DU-145 prostate
EKVX NSCLC = test system: EKVX NSCLC
HCC-2998 colon = test system: HCC-2998 colon
HCT-116 colon = test system: HCT-116 colon
HCT-15 colon = test system: HCT-15 colon
HL-60(TB) leukemia = test system: HL-60(TB) leukemia
HOP-62 NSCLC = test system: HOP-62 NSCLC
HOP-92 NSCLC = test system: HOP-92 NSCLC
HS 578T breast = test system: HS 578T breast
HT29 colon = test system: HT29 colon
IGROV1 ovarian = test system: IGROV1 ovarian
K-562 leukemia = test system: K-562 leukemia
KM12 colon = test system: KM12 colon
LOX IMVI melanoma = test system: LOX IMVI melanoma
M14 melanoma = test system: M14 melanoma
MALME-3M melanoma = test system: MALME-3M melanoma
MCF7 breast = test system: MCF7 breast
MDA-MB-231 breast = test system: MDA-MB-231 breast
MDA-MB-435 = test system: MDA-MB-435
MDA-N = test system: MDA-N
MOLT-4 leukemia = test system: MOLT-4 leukemia
NCI-H226 lung = test system: NCI-H226 lung
NCI-H23 lung = test system: NCI-H23 lung
NCI-H460 lung = test system: NCI-H460 lung
NCI-H522 lung = test system: NCI-H522 lung
NCI/ADR-RES ovarian = test system: NCI/ADR-RES ovarian
OVCAR-3 ovarian = test system: OVCAR-3 ovarian
OVCAR-4 ovarian = test system: OVCAR-4 ovarian
OVCAR-5 ovarian = test system: OVCAR-5 ovarian
OVCAR-8 ovarian = test system: OVCAR-8 ovarian
PC-3 prostate = test system: PC-3 prostate
RPMI-8226 leukemia = test system: RPMI-8226 leukemia
RXF 393 renal = test system: RXF 393 renal
SF-268 CNS = test system: SF-268 CNS
SF-295 CNS = test system: SF-295 CNS
SK-MEL-2 melanoma = test system: SK-MEL-2 melanoma
SK-MEL-28 melanoma = test system: SK-MEL-28 melanoma
SK-MEL-5 melanoma = test system: SK-MEL-5 melanoma
SK-OV-3 ovarian = test system: SK-OV-3 ovarian
SN12C renal = test system: SN12C renal
SNB-19 CNS = test system: SNB-19 CNS
SW-620 colon = test system: SW-620 colon
T-47D breast = test system: T-47D breast
TK-10 renal = test system: TK-10 renal
U251 CNS = test system: U251 CNS
UACC-257 melanoma = test system: UACC-257 melanoma
UACC-62 melanoma = test system: UACC-62 melanoma
UO-31 renal = test system: UO-31 renal
SF-539 CNS = test system: SF-539 CNS
SNB-75 CNS = test system: SNB-75 CNS

Q: With `C[N+](C)(C)c1cc2c(nn1)Nc1ccccc1S2` as the compound, how does the TGI (786-0 renal) read?
A: The TGI was over 100 µM.

Q: What about the TGI (A498 renal) of the same compound?
A: The TGI was 87.8 µM.

Q: What about the TGI (A549 NSCLC) of the same compound?
A: The TGI was over 100 µM.

Q: What about the TGI (ACHN renal) of the same compound?
A: Its TGI is 69.6 µM.

Q: And the TGI (BT-549 breast)?
A: The TGI was over 100 µM.

Q: What about the TGI (CAKI-1 renal) of the same compound?
A: Its TGI is over 100 µM.

Q: And the TGI (CCRF-CEM leukemia)?
A: The TGI was 41 µM.

Q: And the TGI (COLO 205 colon)?
A: The TGI was 38 µM.

Q: And the TGI (DU-145 prostate)?
A: Its TGI is over 100 µM.

Q: What about the TGI (EKVX NSCLC) of the same compound?
A: The TGI was 29.9 µM.

Q: And the TGI (HCC-2998 colon)?
A: The TGI was 71.5 µM.

Q: And the TGI (HCT-116 colon)?
A: The TGI was 66 µM.

Q: What about the TGI (HCT-15 colon) of the same compound?
A: Its TGI is over 100 µM.

Q: What about the TGI (HL-60(TB) leukemia) of the same compound?
A: The TGI was 74 µM.

Q: And the TGI (HOP-62 NSCLC)?
A: Its TGI is 69.8 µM.

Q: What about the TGI (HOP-92 NSCLC) of the same compound?
A: Its TGI is 48.5 µM.

Q: And the TGI (HS 578T breast)?
A: Its TGI is over 100 µM.

Q: What about the TGI (HT29 colon) of the same compound?
A: Its TGI is 42.5 µM.

Q: And the TGI (IGROV1 ovarian)?
A: The TGI was 81.2 µM.

Q: What about the TGI (K-562 leukemia) of the same compound?
A: The TGI was 68.9 µM.

Q: What about the TGI (KM12 colon) of the same compound?
A: Its TGI is over 100 µM.

Q: What about the TGI (LOX IMVI melanoma) of the same compound?
A: The TGI was 43.8 µM.

Q: What about the TGI (M14 melanoma) of the same compound?
A: Its TGI is 40 µM.

Q: And the TGI (MALME-3M melanoma)?
A: Its TGI is 70 µM.

Q: And the TGI (MCF7 breast)?
A: Its TGI is over 100 µM.

Q: And the TGI (MDA-MB-231 breast)?
A: The TGI was 67 µM.

Q: And the TGI (MDA-MB-435)?
A: Its TGI is 51.9 µM.

Q: And the TGI (MDA-N)?
A: Its TGI is 50.3 µM.

Q: What about the TGI (MOLT-4 leukemia) of the same compound?
A: Its TGI is 44.2 µM.

Q: What about the TGI (NCI-H226 lung) of the same compound?
A: The TGI was 35.9 µM.

Q: And the TGI (NCI-H23 lung)?
A: The TGI was over 100 µM.

Q: What about the TGI (NCI-H460 lung) of the same compound?
A: Its TGI is 48.8 µM.

Q: And the TGI (NCI-H522 lung)?
A: Its TGI is 52.8 µM.

Q: And the TGI (NCI/ADR-RES ovarian)?
A: The TGI was 56.9 µM.

Q: What about the TGI (OVCAR-3 ovarian) of the same compound?
A: The TGI was 54.8 µM.

Q: And the TGI (OVCAR-4 ovarian)?
A: The TGI was 70.1 µM.

Q: What about the TGI (OVCAR-5 ovarian) of the same compound?
A: Its TGI is 58.2 µM.

Q: And the TGI (OVCAR-8 ovarian)?
A: The TGI was 77.9 µM.

Q: What about the TGI (PC-3 prostate) of the same compound?
A: Its TGI is 47.9 µM.

Q: And the TGI (RPMI-8226 leukemia)?
A: The TGI was 36 µM.

Q: What about the TGI (RXF 393 renal) of the same compound?
A: Its TGI is over 100 µM.

Q: What about the TGI (SF-268 CNS) of the same compound?
A: Its TGI is over 100 µM.

Q: What about the TGI (SF-295 CNS) of the same compound?
A: The TGI was 49.7 µM.

Q: What about the TGI (SK-MEL-2 melanoma) of the same compound?
A: The TGI was 37.1 µM.

Q: What about the TGI (SK-MEL-28 melanoma) of the same compound?
A: Its TGI is 53.1 µM.

Q: And the TGI (SK-MEL-5 melanoma)?
A: Its TGI is 29.9 µM.

Q: What about the TGI (SK-OV-3 ovarian) of the same compound?
A: The TGI was 72 µM.

Q: What about the TGI (SN12C renal) of the same compound?
A: Its TGI is over 100 µM.

Q: What about the TGI (SNB-19 CNS) of the same compound?
A: Its TGI is over 100 µM.

Q: What about the TGI (SW-620 colon) of the same compound?
A: The TGI was over 100 µM.

Q: And the TGI (T-47D breast)?
A: The TGI was 28.2 µM.

Q: What about the TGI (TK-10 renal) of the same compound?
A: The TGI was over 100 µM.

Q: And the TGI (U251 CNS)?
A: Its TGI is 63.9 µM.

Q: And the TGI (UACC-257 melanoma)?
A: Its TGI is 62.6 µM.

Q: And the TGI (UACC-62 melanoma)?
A: Its TGI is 36.9 µM.

Q: And the TGI (UO-31 renal)?
A: Its TGI is 41.9 µM.

Q: Which results are given for `O=c1c(-c2ccccc2F)coc2cc(F)ccc12`?
A: TGI (786-0 renal): > 100 µM; TGI (A498 renal): > 100 µM; TGI (A549 NSCLC): > 100 µM; TGI (ACHN renal): > 100 µM; TGI (BT-549 breast): > 100 µM; TGI (CAKI-1 renal): > 100 µM; TGI (CCRF-CEM leukemia): > 100 µM; TGI (COLO 205 colon): > 100 µM; TGI (DU-145 prostate): > 100 µM; TGI (EKVX NSCLC): > 100 µM; TGI (HCT-116 colon): > 100 µM; TGI (HCT-15 colon): > 100 µM; TGI (HL-60(TB) leukemia): > 100 µM; TGI (HOP-62 NSCLC): > 100 µM; TGI (HOP-92 NSCLC): > 100 µM; TGI (HS 578T breast): > 100 µM; TGI (HT29 colon): > 100 µM; TGI (IGROV1 ovarian): > 100 µM; TGI (KM12 colon): > 100 µM; TGI (LOX IMVI melanoma): > 100 µM; TGI (M14 melanoma): > 100 µM; TGI (MDA-MB-231 breast): > 100 µM; TGI (MDA-MB-435): > 100 µM; TGI (MDA-N): > 100 µM; TGI (MOLT-4 leukemia): > 100 µM; TGI (NCI-H226 lung): > 100 µM; TGI (NCI-H23 lung): > 100 µM; TGI (NCI-H460 lung): > 100 µM; TGI (NCI-H522 lung): > 100 µM; TGI (OVCAR-3 ovarian): > 100 µM; TGI (OVCAR-4 ovarian): > 100 µM; TGI (OVCAR-5 ovarian): > 100 µM; TGI (OVCAR-8 ovarian): > 100 µM; TGI (PC-3 prostate): > 100 µM; TGI (RXF 393 renal): > 100 µM; TGI (SF-268 CNS): > 100 µM; TGI (SF-295 CNS): > 100 µM; TGI (SF-539 CNS): > 100 µM; TGI (SK-MEL-2 melanoma): > 100 µM; TGI (SK-MEL-28 melanoma): > 100 µM; TGI (SK-MEL-5 melanoma): > 100 µM; TGI (SK-OV-3 ovarian): > 100 µM; TGI (SN12C renal): > 100 µM; TGI (SNB-19 CNS): > 100 µM; TGI (SNB-75 CNS): 96.4 µM; TGI (SW-620 colon): > 100 µM; TGI (T-47D breast): > 100 µM; TGI (TK-10 renal): > 100 µM; TGI (U251 CNS): > 100 µM; TGI (UACC-257 melanoma): > 100 µM; TGI (UACC-62 melanoma): > 100 µM; TGI (UO-31 renal): > 100 µM
